Active and inactive are the calls of the source. The calls are words filed in the database; no cut-off is given here.
Columns and labels:
[1] = Cytotoxicity against rat L6E9 myoblasts at 1 to 25 uM
[2] = test system: Trypanosoma cruzi; assay: Antimicrobial activity against Trypanosoma cruzi Y infected in rat L6E9 myoblasts assessed as inhibition of [5,6-3H]uracil incorporation after 3 days postinfection by scintillation counter; assay type: functional, organism-based
[3] = biological target: T1, Cyclic nucleotide specific phosphodiesterase (Trypanosoma cruzi, UniProt Q53I59); assay: Inhibition of Trypanosoma cruzi Y PDEC after 30 mins
T1 sequence (Q53I59 whole entry): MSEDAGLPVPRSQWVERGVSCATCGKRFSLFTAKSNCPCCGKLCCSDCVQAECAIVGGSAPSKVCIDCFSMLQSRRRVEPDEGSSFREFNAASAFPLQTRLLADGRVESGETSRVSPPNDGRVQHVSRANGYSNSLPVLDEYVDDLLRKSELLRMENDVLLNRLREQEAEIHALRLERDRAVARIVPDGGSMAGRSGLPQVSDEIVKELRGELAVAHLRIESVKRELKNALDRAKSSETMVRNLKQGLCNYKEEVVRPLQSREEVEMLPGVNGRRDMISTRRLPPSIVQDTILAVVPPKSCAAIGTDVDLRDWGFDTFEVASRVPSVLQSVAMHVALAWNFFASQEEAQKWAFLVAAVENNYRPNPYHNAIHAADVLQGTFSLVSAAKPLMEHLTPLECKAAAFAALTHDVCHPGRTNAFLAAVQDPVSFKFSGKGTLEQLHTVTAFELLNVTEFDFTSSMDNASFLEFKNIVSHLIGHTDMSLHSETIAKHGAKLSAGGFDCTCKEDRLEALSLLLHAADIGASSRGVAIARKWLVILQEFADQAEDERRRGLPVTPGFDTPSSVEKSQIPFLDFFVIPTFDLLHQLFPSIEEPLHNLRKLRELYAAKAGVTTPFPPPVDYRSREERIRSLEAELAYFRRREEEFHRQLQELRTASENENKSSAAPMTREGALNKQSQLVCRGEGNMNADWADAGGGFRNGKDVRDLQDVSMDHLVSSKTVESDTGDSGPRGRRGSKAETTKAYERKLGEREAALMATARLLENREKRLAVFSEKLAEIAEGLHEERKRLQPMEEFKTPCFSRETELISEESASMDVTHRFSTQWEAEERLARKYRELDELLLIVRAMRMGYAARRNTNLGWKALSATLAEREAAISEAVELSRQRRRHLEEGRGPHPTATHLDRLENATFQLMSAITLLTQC

[4] = Cytotoxicity against rat L6E9 myoblasts at >25 uM
[5] = Cytotoxicity against rat L6E9 myoblasts at >10 uM
[6] = biological target: Phosphodiesterase 4 (Homo sapiens, UniProt P27815+Q08499+Q07343+Q08493); assay: Inhibition of human PDE4 after 30 mins; assay type: protein assay
[7] = Cytotoxicity against rat L6E9 myoblasts upto 1 uM
[8] = biological target: T2, Cyclic nucleotide specific phosphodiesterase (Trypanosoma cruzi) (UniProt Q53I59); assay: Inhibition of Trypanosoma cruzi Y PDEC assessed as cAMP accumulation at 4.5 to 45 uM after 1 to 5 mins by luminescence spectrophotometry
T2 sequence (whole entry): T1 sequence (Q53I59 whole entry)

[9] = biological target: T2, Cyclic nucleotide specific phosphodiesterase (Trypanosoma cruzi); assay: Inhibition of Trypanosoma cruzi Y PDEC assessed as cAMP accumulation at 43 uM after 1 to 5 mins by luminescence spectrophotometry
[10] = biological target: T2, Cyclic nucleotide specific phosphodiesterase (Trypanosoma cruzi); assay: Inhibition of Trypanosoma cruzi Y PDEC assessed as cAMP accumulation at 90 uM after 1 to 5 mins by luminescence spectrophotometry
[11] = biological target: T2, Cyclic nucleotide specific phosphodiesterase (Trypanosoma cruzi); assay: Inhibition of Trypanosoma cruzi Y PDEC assessed as cAMP accumulation at 26 uM after 1 to 5 mins by luminescence spectrophotometry

Row | IC50 [3] [µM] | IC50 [6] [µM] | SMILES | Activity [1] | IC50 [2] [µM] | also measured
1 | 6.3 | – | CC(C)(C)c1cc2ncnc(NNC(=O)c3cccs3)c2s1 [GK03671] | Non-toxic | 4.8 | –
2 | > 10 | – | O=C(CN1CCc2ccccc21)Nc1nnc(-c2cccs2)s1 | Non-toxic | > 10 | –
3 | 3.8 | – | O=S(=O)(Cc1ccco1)Cc1nc(-c2ccccc2)cs1 | Non-toxic | 25 | –
4 | > 10 | – | COc1ccc(C=O)cc1OC1CCOC1 (stereo not drawn) | Non-toxic | 122 | –
5 | > 10 | – | CCOC(=O)c1csc(COc2ccc(C3SCCS3)cc2)n1 | Non-toxic | – | Activity [4]: Toxic
6 | > 10 | – | O=C(Cn1nnc(N2CCCC2)n1)N/N=C/c1ccncc1 | Non-toxic | – | Activity [5]: Toxic
7 | 3.2 | 0.022 | CC(C)CC(=O)c1ccc(OC(F)F)c(OC2CCCC2)c1 | Non-toxic | 3.6 | –
8 | 3.9 | 6 | CCCC(O)(C(=O)c1ccc(OC(F)F)c(Oc2ccccn2)c1)c1cnc2ccccc2c1 (stereo not drawn) | Non-toxic | 3.8 | –
9 | 4 | 60 | CCCC(=O)c1ccc(OC2CCOCC2)c(OC)c1 | Non-toxic | 4 | –
10 | 4.5 | – | O=S(=O)(Cc1noc(-c2ccno2)n1)Cc1ccco1 | Non-toxic | – | Activity [7]: Toxic
11 | 4.9 | 2.6 | COc1ccc(C(=O)CC2CCCCC2)cc1OC1CCOC1 (stereo not drawn) | Non-toxic | 1.7 | –
12 | > 10 | – | O=Cc1ccc(OC(F)F)c(O)c1 | Non-toxic | 11 | –
13 | > 10 | – | O=C(COc1ncnc2cc(Cl)ccc12)Nc1ccccc1Cl | Non-toxic | > 10 | –
14 | > 10 | – | NNC(=O)c1csc(COc2ccc(C3SCCS3)cc2)n1 | Non-toxic | > 10 | –
15 | 3.6 | – | CCOC(=O)Cc1csc(NC(=O)Nc2ccc(Cl)c(Cl)c2)n1 | Non-toxic | – | Activity [7]: Toxic
16 | > 10 | 2.3 | COc1ccc(C(=O)CCc2ccccc2)cc1OC1CCOC1 (stereo not drawn) | Non-toxic | 5.6 | –
17 | > 10 | – | O=C(Nc1csc2ccccc12)NC1Cc2ccccc2C1 | Non-toxic | – | Activity [4]: Toxic
18 | > 10 | 100 | CCCC(O)c1ccc(OC)c(OC2CCOC2)c1 (stereo not drawn) | Non-toxic | 471 | –
19 | 5.6 | 24 | CCCC(=O)c1ccc(OC2CCOC2)c(OC)c1 (stereo not drawn) | Non-toxic | 3.7 | –
20 | 3.2 | 0.626 | O=C(CCCc1ccccc1)c1ccc(OC(F)F)c(OC2CCOC2)c1 (stereo not drawn) | Non-toxic | 3.1 | –
21 | > 10 | – | O=C(Nc1ccc(S(=O)(=O)N2CCCCC2)cc1)NC1CCCC1 | Non-toxic | – | Activity [7]: Toxic
22 | 5.4 | 5.2 | O=C(CC1CCCCC1)c1ccc(OC(F)F)c(OC(F)F)c1 | Non-toxic | 5.7 | –
23 | 3.5 | 71 | CCCCC(=O)c1ccc(OC2CCOCC2)c(OC)c1 | Non-toxic | 5.2 | inhibition [8]: Active; inhibition [9]: Active; inhibition [10]: Active; inhibition [11]: Active
24 | 2.5 | 0.18 | O=C(CCc1ccccc1)c1ccc(OC(F)F)c(OC2CCOC2)c1 (stereo not drawn) | Non-toxic | 3.1 | –
25 | > 10 | – | COC(OC)c1ccc(C#N)c(SCC(=O)c2ccc(Cl)cc2)n1 | Non-toxic | > 10 | –

Row | IC50 [3] [µM] | IC50 [6] [µM] | SMILES | Activity [1] | IC50 [2] [µM] | also measured
26 | 2.2 | 0.082 | O=C(CCc1ccccc1)c1ccc(OC(F)F)c(OC(F)F)c1 | Non-toxic | 2.3 | –
27 | 10 | – | O=C(NCc1csc(-c2cccs2)n1)C1=Cc2ccccc2OC1 [SCR 01311] | Non-toxic | 25 | –
28 | 7 | – | C=CCn1c(=S)sc2c(Sc3nnc(-c4ccco4)o3)ncnc21 | Non-toxic | 5.4 | –
29 | 2.5 | 0.667 | O=C(CC1CCCCC1)c1ccc(OC(F)F)c(OC2CCOC2)c1 (stereo not drawn) | Non-toxic | 4.4 | –
30 | > 10 | 1.9 | COc1ccc(C(=O)CCC2CCCCC2)cc1OC1CCOC1 (stereo not drawn) | Non-toxic | 6.1 | –
31 | 5.3 | 1.1 | O=C(CCC1CCCCC1)c1ccc(OC(F)F)c(OC2CCOC2)c1 (stereo not drawn) | Non-toxic | 5.8 | –
32 | 3.5 | 40 | CCCC(=O)c1ccc(OC(F)F)c(Oc2ccccn2)c1 | Non-toxic | 10.3 | –
33 | > 10 | – | O=S(=O)(Cc1noc(-c2cccs2)n1)c1ccc(F)cc1 | Non-toxic | > 10 | –
34 | 5.5 | – | O=C1c2ccccc2S(=O)(=O)N1Cc1nc2ccccc2s1 | Non-toxic | 3.3 | –
35 | > 10 | 100 | CCCC(O)c1ccc(OC)c(OC2CCOCC2)c1 (stereo not drawn) | Non-toxic | 10 | –
36 | 4.8 | 0.35 | CCCC(=O)c1ccc(OC(F)F)c(OC2CCOCC2)c1 | Non-toxic | 1.6 | inhibition [8]: Active; inhibition [9]: Active; inhibition [10]: Active; inhibition [11]: Active
37 | > 10 | – | Fc1ccccc1Nc1ncnc2c1nnn2Cc1ccccc1 | Non-toxic | > 10 | –
38 | > 10 | – | O=S(=O)(Cc1noc(CSc2ccc(Cl)cc2)n1)c1ccccn1 | Non-toxic | – | Activity [5]: Toxic
39 | 2.5 | 44 | O=C(CCCc1ccccc1)c1ccc(OC(F)F)c(OC(F)F)c1 | Non-toxic | 7.7 | –
40 | > 10 | – | O=C(SCc1ccco1)c1csc(C2COc3ccccc3O2)n1 (stereo not drawn) | Non-toxic | 25 | –
41 | 4.3 | – | CSc1noc(-c2ccc(S(=O)(=O)NCc3ccccc3)s2)c1C#N | Non-toxic | – | Activity [4]: Toxic
42 | 4.6 | – | CCOC(=O)c1nc(C)nc(Sc2nnc(-c3ccccc3)[nH]2)c1C | Non-toxic | 6.4 | –
43 | > 10 | 0.43 | CCCC(=O)c1ccc(OC)c(OC2CCOC2)c1 (stereo not drawn) | Non-toxic | 68 | –
44 | 2.4 | – | O=S(=O)(Cc1noc(-c2ccc(Cl)cc2)n1)c1ccccn1 | Non-toxic | – | Activity [7]: Toxic
45 | 10 | – | O=C1CC(Sc2ccc(Cl)cc2)C(=O)N1Cc1ccncc1 (stereo not drawn) | Non-toxic | > 10 | –
46 | > 10 | 0.72 | CCCCC(=O)c1ccc(OC)c(OC2CCOCC2)c1 | Non-toxic | 2.1 | –
47 | 3.3 | 6 | CCCC(c1ccc(Oc2ccccn2)c(OC)c1)c1cnc2ccccc2c1 (stereo not drawn) | Non-toxic | 1.9 | –
48 | 3.1 | 93 | CCCCC(=O)c1ccc(OC2CCN(C(=O)OC(C)(C)C)CC2)c(OC)c1 | Non-toxic | 3.8 | –
49 | 5.1 | 100 | CCCCC(=O)c1ccc(OC2CCOC2)c(OC)c1 (stereo not drawn) | Non-toxic | 1.8 | inhibition [8]: Active; inhibition [9]: Active; inhibition [10]: Active; inhibition [11]: Active

Reference: ChEMBL document CHEMBL1671721, “Chemical validation of phosphodiesterase C as a chemotherapeutic target in Trypanosoma cruzi, the etiological agent of Chagas' disease” (Antimicrob Agents Chemother, 2010)
